Test results as given in the NIST ThermoML archive (doi:10.1021/je300504f).
Where “and” joins values, the source holds several entries; their conditions need not be identical. Equal values may be shown once. ± gives the expanded uncertainty stated by the source.

Tests used:
[1] = Molar enthalpy of transition or fusion; conditions: Crystal; DSC
[2] = Crystal; for Normal melting temperature: DTA

FC(F)(F)C(F)(F)C(F)(F)C(F)(F)C(F)(F)C(F)(F)C(F)(F)C(F)(F)C(F)(F)C(F)(F)C(F)(F)C(F)(F)C(F)(F)C(F)(F)C(F)(F)C(F)(F)C(F)(F)C(F)(F)C(F)(F)C(F)(F)F [dotetracontafluoroeicosane]
Conditions	Molar enthalpy of transition or fusion [kcal/mol]	Normal melting temperature [°C]
[1]	12 ± 0.263	–
[2]	–	163.1 ± 0.7

FC(F)(F)C(F)(F)C(F)(F)C(F)(F)C(F)(F)C(F)(F)C(F)(F)C(F)(F)C(F)(F)C(F)(F)C(F)(F)C(F)(F)F [hexacosafluorododecane]
Conditions	Molar enthalpy of transition or fusion [kcal/mol]	Normal melting temperature [°C]
[1]	5.78 ± 0.311	–
[2]	–	73.5 ± 0.7

[2]
Conditions	vapor or sublimation pressure [kPa]
313.3 K	0.0672 ± 0.0067
318.2 K	0.1074 ± 0.011
323.2 K	0.1781 ± 0.018
328.2 K	0.2832 ± 0.028
333.2 K	0.4571 ± 0.046
338.2 K	0.7269 ± 0.073
343.2 K	1.039 ± 0.1
348.2 K	1.63 ± 0.16

Fc1c(F)c(F)c(-c2c(F)c(F)c(F)c(F)c2F)c(F)c1F [perfluorobiphenyl]
Conditions	Molar enthalpy of transition or fusion [kcal/mol]	Normal melting temperature [°C]
[1]	4.9 ± 0.311	–
[2]	–	66.5 ± 0.7

FC(F)(F)C(F)(F)C(F)(F)C(F)(F)C(F)(F)C(F)(F)C(F)(F)C(F)(F)C(F)(F)C(F)(F)C(F)(F)C(F)(F)C(F)(F)C(F)(F)C(F)(F)F [perfluoropentadecane]
Conditions	Molar enthalpy of transition or fusion [kcal/mol]	Normal melting temperature [°C]
[1]	8.39 ± 0.191	–
[2]	–	115.0 ± 0.7

[2]
Conditions	vapor or sublimation pressure [kPa]
312.1 K	0.0006 ± 6e-05
323.2 K	0.0025 ± 0.00025
333.2 K	0.00776 ± 0.00078
338.2 K	0.0139 ± 0.0014
343.3 K	0.0238 ± 0.0024
348.2 K	0.0408 ± 0.0041
353.1 K	0.0662 ± 0.0066
358.2 K	0.1119 ± 0.011
363.2 K	0.1796 ± 0.018
368.2 K	0.2908 ± 0.029

FC(F)(F)C(F)(F)C(F)(F)C(F)(F)C(F)(F)C(F)(F)C(F)(F)C(F)(F)C(F)(F)C(F)(F)C(F)(F)C(F)(F)C(F)(F)C(F)(F)C(F)(F)C(F)(F)C(F)(F)C(F)(F)C(F)(F)C(F)(F)C(F)(F)C(F)(F)C(F)(F)C(F)(F)F [perfluorotetracosane]
Conditions	Molar enthalpy of transition or fusion [kcal/mol]	Normal melting temperature [°C]
[1]	15.1 ± 0.406	–
[2]	–	188.0 ± 0.7

FC(F)(F)C(F)(F)C(F)(F)C(F)(F)C(F)(F)C(F)(F)C(F)(F)C(F)(F)C(F)(F)C(F)(F)C(F)(F)C(F)(F)C(F)(F)F [perfluorotridecane]
Conditions	Molar enthalpy of transition or fusion [kcal/mol]	Normal melting temperature [°C]
[1]	6.67 ± 0.239	–
[2]	–	88.6 ± 0.7

[2]
Conditions	vapor or sublimation pressure [kPa]
313.2 K	0.0143 ± 0.0014
318.4 K	0.0253 ± 0.0025
323.4 K	0.0443 ± 0.0044
329.3 K	0.0796 ± 0.008
333.5 K	0.1199 ± 0.012
339.3 K	0.2077 ± 0.021
343.3 K	0.297 ± 0.03
349.2 K	0.5217 ± 0.052
354.1 K	0.8357 ± 0.084
358.2 K	1.147 ± 0.11

FC(F)(F)C(F)(F)C(F)(F)C(F)(F)C(F)(F)C(F)(F)C(F)(F)C(F)(F)C(F)(F)C(F)(F)C(F)(F)C(F)(F)C(F)(F)C(F)(F)C(F)(F)C(F)(F)F [tetratriacontafluorohexadecane]
Conditions	Molar enthalpy of transition or fusion [kcal/mol]	Normal melting temperature [°C]
[1]	9.25 ± 0.191	–
[2]	–	126.6 ± 0.7

FC(F)(F)C(F)(F)C(F)(F)C(F)(F)C(F)(F)C(F)(F)C(F)(F)C(F)(F)C(F)(F)C(F)(F)C(F)(F)C(F)(F)C(F)(F)C(F)(F)F [triacontafluorotetradecane]
Conditions	Molar enthalpy of transition or fusion [kcal/mol]	Normal melting temperature [°C]
[1]	7.53 ± 0.215	–
[2]	–	102.5

[2]
Conditions	vapor or sublimation pressure
313.2 K	0.00349 ± 0.00035 kPa
318.2 K	0.00664 ± 0.00066 kPa
328.2 K	0.0191 ± 0.0019 kPa
333.2 K	0.0315 ± 0.0032 kPa
338.2 K	0.053 ± 0.0053 kPa
343.2 K	0.0971 ± 0.0097 kPa
348.2 K	0.161 ± 0.016 kPa
353.1 K	0.2493 ± 0.025 kPa
358.2 K	0.4128 ± 0.041 kPa and 0.4025 ± 0.04 kPa
